Assay results taken from ChEMBL document CHEMBL4304773, “Nitroimidazole-containing compounds and their antibacterial and antitubercular activities” (2019).
Values after ≈ are worked out from the molar mass of the structure shown.

Key:
Staphylococcus aureus [1] = assay: Antibacterial activity against Staphylococcus aureus; type: functional
Bacillus subtilis [2] = assay: Antibacterial activity against Bacillus subtilis; type: functional
Escherichia coli [3] = assay: Antibacterial activity against Escherichia coli; type: functional
Pseudomonas aeruginosa = assay: Antibacterial activity against Pseudomonas aeruginosa; type: functional
Salmonella typhimurium = assay: Antibacterial activity against Salmonella typhimurium; type: functional, Salmonella enterica subsp. enterica serovar Typhimurium; details: Salmonella enterica
Proteus = assay: Antibacterial activity against Proteus; type: functional
Staphylococcus aureus [4] = assay: Antibacterial activity against Staphylococcus aureus ATCC 6538 after 18 hrs by two fold serial dilution; type: functional; details: ATCC 6538, 18 h
Bacillus subtilis [5] = assay: Antibacterial activity against Bacillus subtilis PTCC 1023 after 18 hrs by two fold serial dilution; type: functional; details: PTCC 1023, 18 h
Klebsiella pneumoniae = assay: Antibacterial activity against Klebsiella pneumoniae ATCC 10031 after 18 hrs by two fold serial dilution; type: functional; details: ATCC 10031, 18 h
Escherichia coli [6] = assay: Antibacterial activity against Escherichia coli ATCC 8739 after 18 hrs by two fold serial dilution; type: functional; details: ATCC 8739, 18 h
Klebsiella aerogenes [7] = assay: Antibacterial activity against Enterobacter aerogenes PTCC 1221 after 18 hrs by two fold serial dilution; type: functional; details: PTCC 1221, 18 h
Streptococcus pyogenes = assay: Antibacterial activity against Streptococcus pyogenes; type: functional
[8] = test system: Staphylococcus epidermidis; assay: Antibacterial activity against methicillin-sensitive Staphylococcus epidermidis by two fold dilution method; type: functional
Staphylococcus aureus [9] = assay: Antibacterial activity against methicillin-sensitive Staphylococcus aureus by two fold dilution method; type: functional
Candida albicans = assay: Antifungal activity against Candida albicans; type: functional
Proteus vulgaris = assay: Antibacterial activity against Proteus vulgaris; type: functional
Klebsiella aerogenes [10] = assay: Antibacterial activity against Klebsiella aerogenes; type: functional
Enterococcus faecalis = assay: Antibacterial activity against Enterococcus faecalis; type: functional
[11] = test system: Staphylococcus epidermidis; assay: Antibacterial activity against Staphylococcus epidermidis; type: functional
Helicobacter pylori [12] = assay: Antibacterial activity against Helicobacter pylori NCTC 11637; type: functional
Helicobacter pylori [13] = assay: Antibacterial activity against Helicobacter pylori; type: functional
Helicobacter pylori [14] = assay: Antibacterial activity against metronidazole-resistant Helicobacter pylori clinical isolates; type: functional

`Cc1ncc([N+](=O)[O-])n1CCCNS(=O)(=O)c1ccc(NCc2ccc(Cl)cc2Cl)cc1` was tested, and the MIC (Staphylococcus aureus [1]) was 64 to 128 µg/mL, the MIC (Bacillus subtilis [2]) was 64 to 128 µg/mL (≈ 128 to 257 µM) and the MIC (Escherichia coli [3]) was 64 to 128 µg/mL (≈ 128 to 257 µM). The MIC (Pseudomonas aeruginosa) was 64 to 128 µg/mL (≈ 128 to 257 µM), the MIC (Salmonella typhimurium) was 64 to 128 µg/mL (≈ 128 to 257 µM) and the MIC (Proteus) was 64 to 128 µg/mL (≈ 128 to 257 µM).
`Cn1cnc([N+](=O)[O-])c1Sc1nnc(-c2ccc([N+](=O)[O-])o2)s1` showed an MIC (Staphylococcus aureus [4]) of 4 to 32 µg/mL (≈ 11.3 to 90.3 µM), an MIC (Bacillus subtilis [5]) of over 64 µg/mL and an MIC (Klebsiella pneumoniae) of over 64 µg/mL. For the same compound, the MIC (Escherichia coli [6]) was over 64 µg/mL and the MIC (Klebsiella aerogenes [7]) was over 64 µg/mL.
Compound `Cc1nc([N+](=O)[O-])cn1Cc1nn(CN2CCN(C)CC2)c(=S)o1` has an MIC (Staphylococcus aureus [1]) of 184 to 2890 µM and an MIC (Streptococcus pyogenes) of 184 to 2890 µM (≈ 65 to 1020 µg/mL).
With `COc1c(N2C[C@@H]3CCCN(C[C@@H](O)Cn4c([N+](=O)[O-])cnc4C)[C@@H]3C2)c(F)cc2c(=O)c(C(=O)O)cn(C3CC3)c12` the MIC [8] was 0.03 to 2 µg/mL (≈ 0.0513 to 3.42 µM) and the MIC (Staphylococcus aureus [9]) was 0.03 to 2 µg/mL (≈ 0.0513 to 3.42 µM).
For `Cc1ncc([N+](=O)[O-])n1CCN1C(=O)S/C(=C\c2ccco2)C1=O`, the MIC (Staphylococcus aureus [1]) was 31.2 to 500 µg/mL, the MIC (Escherichia coli [3]) was 31.2 to 500 µg/mL (≈ 89.7 to 1440 µM) and the MIC (Pseudomonas aeruginosa) was 31.2 to 500 µg/mL (≈ 89.7 to 1440 µM). The MIC (Candida albicans) was 31.2 to 500 µg/mL (≈ 89.7 to 1440 µM), the MIC (Proteus vulgaris) was 31.2 to 500 µg/mL (≈ 89.7 to 1440 µM) and the MIC (Klebsiella aerogenes [10]) was 31.2 to 500 µg/mL (≈ 89.7 to 1440 µM). The MIC (Enterococcus faecalis) was 31.2 to 500 µg/mL (≈ 89.7 to 1440 µM), the MIC [11] was 31.2 to 500 µg/mL (≈ 89.7 to 1440 µM) and the MIC (Salmonella typhimurium) was 31.2 to 500 µg/mL (≈ 89.7 to 1440 µM).
For `Cc1ncc([N+](=O)[O-])n1CCNCc1no[n+]([O-])c1C(N)=O`, the MIC90 (Helicobacter pylori [12]) was 0.5 to 32 µg/mL (≈ 1.61 to 103 µM) and the MIC90 (Helicobacter pylori [13]) was 0.5 to 32 µg/mL (≈ 1.61 to 103 µM).
`Cc1ncc([N+](=O)[O-])n1CCNCc1no[n+]([O-])c1C` gave an MIC90 (Helicobacter pylori [12]) of 0.5 to 32 µg/mL (≈ 1.77 to 113 µM) and an MIC90 (Helicobacter pylori [13]) of 0.5 to 32 µg/mL (≈ 1.77 to 113 µM).
In the case of `Cc1ncc([N+](=O)[O-])n1CCOc1no[n+]([O-])c1S(=O)(=O)c1ccccc1`, the MIC90 (Helicobacter pylori [12]) was 0.5 to 32 µg/mL (≈ 1.26 to 80.9 µM), the MIC90 (Helicobacter pylori [14]) was 0.5 to 32 µg/mL (≈ 1.26 to 80.9 µM) and the MIC90 (Helicobacter pylori [13]) was 1 to 4 µg/mL (≈ 2.53 to 10.1 µM).
`Cc1ncc([N+](=O)[O-])n1CCNCc1nonc1C#N` gave an MIC90 (Helicobacter pylori [12]) of 0.5 to 32 µg/mL (≈ 1.8 to 115 µM) and an MIC90 (Helicobacter pylori [13]) of 0.5 to 32 µg/mL (≈ 1.8 to 115 µM).
With `Cc1ncc([N+](=O)[O-])n1CCOc1nonc1-c1ccccc1` the MIC90 (Helicobacter pylori [12]) was 0.5 to 32 µg/mL (≈ 1.59 to 101 µM), the MIC90 (Helicobacter pylori [14]) was 0.5 to 32 µg/mL (≈ 1.59 to 101 µM) and the MIC90 (Helicobacter pylori [13]) was 1 to 4 µg/mL (≈ 3.17 to 12.7 µM).
